Data taken from publication PMC8215293 (The Journal of Biological Chemistry, 2021).
Values joined by “and” are separate entries in the source; they are usually repeats but may differ in a detail not shown here. Identical values can stand only once.

How the values were obtained:
CYP11B2 = biological target: T1, CYP11B2 (Homo sapiens, UniProt P19099); type: binding; conditions: isolated CYP11B2 0.2 μM, 5 cm path length
T1 sequence (P19099 30-503 limits assumed): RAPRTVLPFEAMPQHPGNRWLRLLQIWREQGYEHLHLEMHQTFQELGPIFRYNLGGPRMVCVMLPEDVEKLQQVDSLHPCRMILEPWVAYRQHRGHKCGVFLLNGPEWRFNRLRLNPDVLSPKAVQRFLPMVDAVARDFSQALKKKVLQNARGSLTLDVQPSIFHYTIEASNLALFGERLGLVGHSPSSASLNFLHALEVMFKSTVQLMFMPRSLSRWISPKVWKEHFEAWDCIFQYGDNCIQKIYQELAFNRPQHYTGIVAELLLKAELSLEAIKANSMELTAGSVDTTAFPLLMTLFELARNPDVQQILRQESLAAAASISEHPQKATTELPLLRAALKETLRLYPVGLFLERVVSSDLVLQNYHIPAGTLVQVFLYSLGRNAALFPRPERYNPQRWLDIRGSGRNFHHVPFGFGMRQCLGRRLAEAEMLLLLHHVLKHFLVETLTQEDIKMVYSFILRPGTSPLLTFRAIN

[1] = tested on: adrenodoxin–CYP11B2 fusion protein; type: binding, human; conditions: fusion versus isolated CYP11B2
[2] = biological target: T2, adrenodoxin–CYP11B2 fusion protein (Homo sapiens, UniProt P10109+P19099); type: binding; conditions: Adx-CYP11B2 fusion 0.2 μM, 5 cm path length
T2 sequence (P10109+P19099 with tags, fused parts or gaps): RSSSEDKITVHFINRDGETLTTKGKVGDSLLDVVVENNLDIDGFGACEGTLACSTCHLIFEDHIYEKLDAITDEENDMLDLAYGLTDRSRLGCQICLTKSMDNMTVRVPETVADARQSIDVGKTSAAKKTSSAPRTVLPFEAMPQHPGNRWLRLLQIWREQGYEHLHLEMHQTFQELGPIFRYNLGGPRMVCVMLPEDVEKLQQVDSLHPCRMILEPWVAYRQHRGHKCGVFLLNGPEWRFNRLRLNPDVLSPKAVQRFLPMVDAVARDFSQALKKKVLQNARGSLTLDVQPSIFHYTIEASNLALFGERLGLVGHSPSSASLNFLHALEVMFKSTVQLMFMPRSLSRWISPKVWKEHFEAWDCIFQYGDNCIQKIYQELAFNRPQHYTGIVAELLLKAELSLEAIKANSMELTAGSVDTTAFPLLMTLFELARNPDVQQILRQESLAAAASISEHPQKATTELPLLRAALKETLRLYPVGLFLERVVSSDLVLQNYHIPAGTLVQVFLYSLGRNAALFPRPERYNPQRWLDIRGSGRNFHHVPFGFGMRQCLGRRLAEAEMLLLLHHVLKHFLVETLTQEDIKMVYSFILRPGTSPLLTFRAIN

Amax (CYP11B2): 0.019
increase of Amax (enzyme population binding inhibitor at saturation) [1]: ~1.7 fold and 1.7 fold
increase of Kd [1]: 1.8 fold
Amax [2]: 0.032
SMILES: N#Cc1ccc([C@H]2CCc3cncn32)c(F)c1 [LCI699, osilodrostat]
